US4560662A, “Streptomyces antibioticus ATCC 31771 and process for obtaining same” (priority 1981, dated 1985)
Values after ≈ are worked out from the molar mass of the structure shown. Like-named read-outs stand apart in the source and are kept apart here.

What was measured:
[1] = test system: Proteus vulgaris ATCC 6380; assay: Bacteriostatic power in solid medium (MIC), aerobic Gram negative; format: cell-based; settings: Proteus vulgaris
[2] = test system: Haemophilus influenzae ATCC 19418; assay: as above; format: cell-based; settings: Haemophilus influenzae, ATCC19418, LRP 213, read-out: minimum inhibiting concentration
Excerpt: (§1) Turning now to an examination of the novel macrolide antibiotics produced according to the present invention, they are all characterized by a bacteriostatic spectrum like that of erythromycin and by the stability in acidic environment, whereby their direct administration by oral route is possible, without having recourse to esters and/or salts, showing the afore mentioned disadvantages and problems. The above is confirmed by the following Table 1, wherein the MIC values are reported, indicating the bacteriostatic power, and by the Table 2, giving the stability values in acidic environment. Without having to be construed in a limiting sense, it seems plausible that the greater stability of the macrolide. antibiotics of the present invention can be attributed to the presence in the molecule of the antibiotic of the neutral sugar oleandrose (J. Antib. (1976) XXIX (7), 728).
(§2) Bacteriostatic power in solid medium of Erythromycin A, Erythromycin B,
(§3) aerobic and anaerobic bacteria, Gram positive and Gram negative minimum
(§4) inhibiting concentrations expressed in mcg/ml.

Shigella sonnei LRP 5 = assay: as above; format: cell-based; settings: Shigella sonnei, LRP5, read-out: minimum inhibiting concentration
Excerpt: as §1, §2, §3, §4

[3] = test system: Pseudomonas aeruginosa LRP 9; assay: as above; format: cell-based; settings: Pseudomonas aeruginosa, LRP9, read-out: minimum inhibiting concentration
Excerpt: as §1, §2, §3, §4

[4] = test system: Staphylococcus aureus ATCC 6538 P; assay: Bacteriostatic power in solid medium (MIC), aerobic Gram positive; format: cell-based; settings: Staphylococcus aureus
Bacillus subtilis LRP 25 = assay: as above; format: cell-based; settings: Bacillus subtilis
[5] = test system: Bacteroides fragilis ATCC 23745; assay: Bacteriostatic power in solid medium (MIC), anaerobic; format: cell-based; settings: Bacteroides fragilis
[6] = test system: Acholeplasma laidlawii ATCC 23206; assay: Bacteriostatic power in solid medium (MIC), aerobic Gram negative; format: cell-based; settings: Acholeplasma laidlawii
[7] = test system: Streptococcus pneumonieae LRP 52; assay: Bacteriostatic power in solid medium (MIC), aerobic Gram positive; format: cell-based; settings: Streptococcus
[8] = test system: Clostridium perfrigens ATCC 3624; assay: Bacteriostatic power in solid medium (MIC), anaerobic; format: cell-based; settings: Clostridium, ATCC3624, LRP 206, read-out: minimum inhibiting concentration
[9] = test system: Neisseria Gonorrhoeae ATCC 19424; assay: Bacteriostatic power in solid medium (MIC), aerobic Gram negative; format: cell-based; settings: Neisseria gonorrhoeae
[10] = test system: Streptococcus faecalis LRP 7; assay: Bacteriostatic power in solid medium (MIC), aerobic Gram positive; format: cell-based; settings: Enterococcus faecalis
Escherichia coli LRP 50 = assay: Bacteriostatic power in solid medium (MIC), aerobic Gram negative; format: cell-based; settings: Escherichia coli
[11] = test system: Streptococcus pyogenes ATCC 8668; assay: Bacteriostatic power in solid medium (MIC), aerobic Gram positive; format: cell-based; settings: Streptococcus pyogenes
[12] = test system: Klebsiella pneumoniae LRP 54; assay: Bacteriostatic power in solid medium (MIC), aerobic Gram negative; format: cell-based; settings: Klebsiella pneumoniae
[13] = test system: Streptococcus pyogenes LRP 197; assay: Bacteriostatic power in solid medium (MIC), aerobic Gram positive; format: cell-based; settings: Streptococcus pyogenes
[14] = test system: Streptococcus pneumonieae ATCC 6303; assay: as above; format: cell-based; settings: Streptococcus
[15] = test system: Mycoplasma hominis I ATCC 14097; assay: Bacteriostatic power in solid medium (MIC), aerobic Gram negative; format: cell-based; settings: Metamycoplasma hominis
[16] = test system: Fusobacterium necrophorum ATCC 27852; assay: Bacteriostatic power in solid medium (MIC), anaerobic; format: cell-based; settings: Fusobacterium necrophorum, ATCC27852, read-out: minimum inhibiting concentration
[17] = test system: Streptococcus faecalis sub. zymogenes ATCC 12958; assay: Bacteriostatic power in solid medium (MIC), aerobic Gram positive; format: cell-based; settings: Enterococcus faecalis
[18] = test system: Staphylococcus aureus ATCC 14154; assay: as above; format: cell-based; settings: Staphylococcus aureus, ATCC14154, LRP 78, Erythromicina resistant, read-out: minimum inhibiting concentration
Excerpt: as §1, §2, §3, §4

[19] = test system: Micrococcus luteus ATCC 15957; assay: as above; format: cell-based; settings: Micrococcus luteus, ATCC15957, LRP 193, Erythromicina resistant, read-out: minimum inhibiting concentration
Excerpt: as §1, §2, §3, §4

[20] = test system: Streptococcus pneumonieae LRP 53; assay: as above; format: cell-based; settings: Streptococcus
[21] = test system: Micrococcus luteus ATCC 9341; assay: as above; format: cell-based; settings: Micrococcus luteus
[22] = test system: Corynebacterium diphteriae LRP 24; assay: as above; format: cell-based; settings: Corynebacterium
[23] = test system: Staphylococcus aureus LRP 14; assay: as above; format: cell-based; settings: Staphylococcus aureus
Salmonella typhi LRP 8 = assay: Bacteriostatic power in solid medium (MIC), aerobic Gram negative; format: cell-based; settings: Salmonella enterica, TYPHI, read-out: minimum inhibiting concentration
physchem = format: physicochemical; settings: acidic environment
Excerpt: t 1/2 represents the half life time of the antibiotics as determined by
high pressure liquid phase chromatography (HPLC).

CC[C@H]1OC(=O)[C@H](C)[C@@H](O[C@H]2C[C@@](C)(OC)[C@@H](O)[C@H](C)O2)[C@H](C)[C@@H](O[C@@H]2O[C@H](C)C[C@H](N(C)C)[C@H]2O)[C@](C)(O)C[C@@H](C)C(=O)[C@H](C)[C@@H](O)[C@H]1C [Erythromycin B, reference compound]
MIC ([1]; ATCC6380, solid medium, LRP 13, read-out: minimum inhibiting concentration): > 25 µg/mL
MIC [2]: 6.25 µg/mL (≈ 8.71 µM)
MIC (Shigella sonnei LRP 5): > 25 µg/mL
MIC [3]: > 25 µg/mL
MIC ([4]; ATCC6538, solid medium, LRP 39, read-out: minimum inhibiting concentration): 0.097 µg/mL (≈ 0.135 µM)
MIC (Bacillus subtilis LRP 25; LRP25, solid medium, LRP 25, read-out: minimum inhibiting concentration): 0.049 µg/mL (≈ 0.0683 µM)
MIC ([5]; ATCC23745, solid medium, LRP 205, anaerobic, read-out: minimum inhibiting concentration): 0.195 µg/mL (≈ 0.272 µM)
MIC ([6]; ATCC23206, solid medium, LRP 204, read-out: minimum inhibiting concentration): 0.097 µg/mL (≈ 0.135 µM)
MIC ([7]; LRP52, solid medium, LRP 52, read-out: minimum inhibiting concentration): 0.024 µg/mL (≈ 0.0334 µM)
MIC [8]: 1.56 µg/mL (≈ 2.17 µM)
MIC ([9]; ATCC19424, solid medium, LRP 214, read-out: minimum inhibiting concentration): 0.097 µg/mL (≈ 0.135 µM)
MIC ([10]; LRP7, solid medium, LRP 7, read-out: minimum inhibiting concentration): 0.195 µg/mL (≈ 0.272 µM)
MIC (Escherichia coli LRP 50; LRP50, solid medium, LRP 50, read-out: minimum inhibiting concentration): 25 µg/mL (≈ 34.8 µM)
MIC ([11]; ATCC8668, solid medium, LRP 34, read-out: minimum inhibiting concentration): 0.024 µg/mL (≈ 0.0334 µM)
MIC ([12]; LRP54, solid medium, LRP 54, read-out: minimum inhibiting concentration): 25 µg/mL (≈ 34.8 µM)
MIC ([13]; LRP197, solid medium, LRP 197, read-out: minimum inhibiting concentration): 0.024 µg/mL (≈ 0.0334 µM)
MIC ([14]; ATCC6303, solid medium, LRP 35, read-out: minimum inhibiting concentration): 0.024 µg/mL (≈ 0.0334 µM)
MIC ([15]; ATCC14097, solid medium, LRP 211, read-out: minimum inhibiting concentration): > 25 µg/mL
MIC [16]: 6.25 µg/mL (≈ 8.71 µM)
MIC ([17]; ATCC12958, solid medium, LRP 61, read-out: minimum inhibiting concentration): 0.195 µg/mL (≈ 0.272 µM)
MIC [18]: > 25 µg/mL
MIC [19]: > 25 µg/mL
MIC ([20]; LRP53, solid medium, LRP 53, read-out: minimum inhibiting concentration): 0.024 µg/mL (≈ 0.0334 µM)
MIC ([21]; ATCC9341, solid medium, LRP 6, read-out: minimum inhibiting concentration): 0.006 µg/mL (≈ 0.00836 µM)
MIC ([22]; LRP24, solid medium, LRP 24, read-out: minimum inhibiting concentration): 0.012 µg/mL (≈ 0.0167 µM)
MIC ([23]; LRP14, solid medium, LRP 14, Penycilline resistant, read-out: minimum inhibiting concentration): 0.195 µg/mL (≈ 0.272 µM)
MIC (Salmonella typhi LRP 8): 25 µg/mL (≈ 34.8 µM)

CC[C@H]1OC(=O)[C@H](C)[C@@H](O[C@H]2C[C@H](OC)[C@@H](O)[C@H](C)O2)[C@H](C)[C@@H](O[C@@H]2O[C@H](C)C[C@H](N(C)C)[C@H]2O)[C@](C)(O)C[C@](C)(O)C(=O)[C@H](C)[C@@H](O)[C@H]1C [P 15148, 3-O-oleandrosyl-5-O-desosaminyl-(8S)-8-hydroxyerythronolide B]
MIC ([1]; ATCC6380, read-out: minimum inhibiting concentration): > 25 µg/mL
MIC [2]: > 25 µg/mL
MIC (Shigella sonnei LRP 5): > 25 µg/mL
MIC [3]: > 25 µg/mL
MIC ([4]; ATCC6538, read-out: minimum inhibiting concentration): 1.56 µg/mL (≈ 2.17 µM)
MIC (Bacillus subtilis LRP 25; LRP25, read-out: minimum inhibiting concentration): 0.78 µg/mL (≈ 1.08 µM)
MIC ([5]; ATCC23745, read-out: minimum inhibiting concentration): 6.25 µg/mL (≈ 8.68 µM)
MIC ([6]; ATCC23206, read-out: minimum inhibiting concentration): 6.25 µg/mL (≈ 8.68 µM)
MIC ([7]; LRP52, read-out: minimum inhibiting concentration): 0.195 µg/mL (≈ 0.271 µM)
MIC [8]: 25 µg/mL (≈ 34.7 µM)
MIC ([9]; ATCC19424, read-out: minimum inhibiting concentration): 1.56 µg/mL (≈ 2.17 µM)
MIC ([10]; LRP7, read-out: minimum inhibiting concentration): 0.78 µg/mL (≈ 1.08 µM)
MIC (Escherichia coli LRP 50; LRP50, read-out: minimum inhibiting concentration): > 25 µg/mL
MIC ([11]; ATCC8668, read-out: minimum inhibiting concentration): 0.195 µg/mL (≈ 0.271 µM)
MIC ([12]; LRP54, read-out: minimum inhibiting concentration): > 25 µg/mL
MIC ([13]; LRP197, read-out: minimum inhibiting concentration): 0.195 µg/mL (≈ 0.271 µM)
MIC ([14]; ATCC6303, read-out: minimum inhibiting concentration): 0.195 µg/mL (≈ 0.271 µM)
MIC ([15]; ATCC14097, read-out: minimum inhibiting concentration): > 25 µg/mL
MIC [16]: > 25 µg/mL
MIC ([17]; ATCC12958, read-out: minimum inhibiting concentration): 0.78 µg/mL (≈ 1.08 µM)
MIC [18]: > 25 µg/mL
MIC [19]: > 25 µg/mL
MIC ([20]; LRP53, read-out: minimum inhibiting concentration): 0.097 µg/mL (≈ 0.135 µM)
MIC ([21]; ATCC9341, read-out: minimum inhibiting concentration): 0.049 µg/mL (≈ 0.0681 µM)
MIC ([22]; LRP24, read-out: minimum inhibiting concentration): 0.097 µg/mL (≈ 0.135 µM)
half-life (physchem; pH 2): 1.12 days
half-life (physchem; pH 3, read-out: t 1/2): > 4.17 days
half-life (physchem; pH 4, read-out: t 1/2): > 4.17 days
MIC ([23]; LRP14, read-out: minimum inhibiting concentration): 1.56 µg/mL (≈ 2.17 µM)
MIC (Salmonella typhi LRP 8): 25 µg/mL (≈ 34.7 µM)
